The values that follow come from ChEMBL document CHEMBL3392998 (J Med Chem, 2014).

The target of one assay is Protease (Human immunodeficiency virus 1, UniProt Q9YQ12). Kind of assay: Inhibition of wild-type HIV-1 protease using fluorogenic peptide substrate incubated for 30 mins prior to substrate addition measured after 10 mins by FRET assay.
Assay [1] addresses Human immunodeficiency virus type 1 protease (Human immunodeficiency virus 1, UniProt Q72874, A71V/G73S/I84V/L10I/L63P/L90M). Kind of assay: Inhibition of multidrug resistant HIV-1 protease L10I/L63P/A71V/G73S/I84V/L90M mutant using fluorogenic peptide substrate incubated for 30 mins prior to substrate addition measured after 10 mins by FRET assay.

Chain of Protease (Q9YQ12 whole entry): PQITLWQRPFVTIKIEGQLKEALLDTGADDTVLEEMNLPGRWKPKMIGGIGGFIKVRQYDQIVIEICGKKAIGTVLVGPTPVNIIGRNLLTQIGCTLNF
Chain of Human immunodeficiency virus type 1 protease (Q72874 entry or part of it A71V/G73S/I84V/L10I/L63P/L90M): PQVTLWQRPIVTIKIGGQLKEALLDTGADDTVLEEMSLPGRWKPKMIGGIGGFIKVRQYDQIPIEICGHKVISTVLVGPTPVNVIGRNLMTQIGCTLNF

Turning to `O=C1c2cccc([N+](=O)[O-])c2C(=O)N1c1ccc2[nH]c(=S)sc2c1`, the Ki worked out at 96 µM at Protease and 91 µM in assay [1].
